Laboratory results: US9416162B2, “Peptides having reduced toxicity that stimulate cholesterol efflux” (The Regents of the University of California, priority 2013, dated 2016)
Non-standard residues stand in square brackets, D forms with d. No end group written: not given here. Cit = NC(=O)NCCC[C@H](N)C(=O)O

Test system: apoE−/− mice
Assay: Atherosclerosis in apoE−/− mice on high-fat western diet, whole aorta Oil-Red O staining
Format: in vivo, mouse
Conditions: IP 30 mg/kg at 48 hour intervals for 6 weeks
Description: Male apoE^−/− mice at 8 weeks of age were fed a high-fat western diet for 14 weeks. Mice were subsequently randomized to either a control group to receive IP injection of vehicle alone or lipid-free peptide (30 mg/kg) at 48 hour intervals for 6 weeks. […] The extent of whole aorta covered with fatty lesions is shown, determined by Oil-Red O staining. Values are means±SD, n=10 mice per group.
CS6253, another synthesis batch of T5237-4, was administered IP at 10 mg/kg for 10 weeks showing again reduction of substantial atherosclerosis in apoE^−/− mice (FIG. 36). Male apoE^−/− mice at 8 weeks of age were fed a high-fat western diet for 14 weeks. Mice were subsequently randomized to either a control group to receive IP injection of vehicle alone or lipid-free CS6253 (10 mg/kg) at 48 hour intervals for 10 weeks while the mice remained on high-fat western diet. The extent of whole aorta covered with fatty lesions is shown, determined by Oil-Red O staining. Values are means±SD, n=10 mice per group.
CS6253 administered SC also reduce substantial atherosclerosis in apoE KO mice. Male apoE−/− mice at 8 weeks of age were fed a high-fat western diet for 14 weeks (FIG. 37). One group was terminated before treatment start as baseline control. Mice were subsequently randomized to one of 3 arms to receive subcutaneous (SC) injection alternate days for 6 weeks; vehicle alone, CS6253 30 mg/kg or CS6253 60 mg/kg. During the first 4 treatment weeks the mice remained on high-fat western diet while during the last two weeks of treatment they were switched to chow diet. The extent of whole aorta covered with fatty lesions is shown, determined by Oil-Red O staining. Values are means±SD, n=10 mice per group.

## T5460-1: citrulline form of LeuATI-5261 possessing a single R3→Citrulline substitution (EV[Cit]SKLEEWLAALRELAEELLARLKS)
  extent of whole aorta covered with fatty lesions: reduced atherosclerosis
